Laboratory results as given in patent US12030904B2 (priority 2020, dated 2024).
pEC50: −log10 of the molar value. Where two headings read alike, the source gives them in different places.

Columns and labels:
[1] = tested on: Recombinant Respiratory Syncytial virus strain A2 containing the firefly luciferase reporter (RSV-Fluc); test: microbe, parasite or virus in culture; type: cell-based; settings: human respiratory syncytial virus, NHBE
[2] = tested on: SARS-CoV-2; test: microbe, parasite or virus in culture; type: cell-based; settings: Severe acute respiratory syndrome coronavirus 2, read-out: SARS EC50
[3] = 72 h, read-out: RSV-Fluc EC50 (NHBE), NHBE cells, three days, Table 2

SMILES	pEC50 [1, 3]	pEC50 ([1]; read-out: RSV EC50, Table 2a)	pEC50 [2]
CCCCCCCCCCCCCCCCCCOC[C@H](COP(=O)(O)OC[C@H]1O[C@@](C#N)(c2ccc3c(N)ncnn23)[C@H](O)[C@@H]1O)OCc1c(F)cccc1C#N [Example 65, ((2R,3S,4R,5R)-5-(4-aminopyrrolo[2,1-f][1,2,4]triazin-7-yl)-5-cyano-3,4-dihydroxytetrahydrofuran-2-yl)methyl ((R)-2-((2-cyano-6-fluorobenzyl)oxy)-3-(octadecyloxy)propyl) hydrogen phosphate]	7.21	7.21	–
CCCCCCCCCCCCCCCCCCOC[C@H](COP(=O)(O)OC[C@H]1O[C@@](C#N)(c2ccc3c(N)ncnn23)[C@H](O)[C@@H]1O)OCc1cc(Cl)cc(C#N)c1 [Example 68, ((2R,3S,4R,5R)-5-(4-aminopyrrolo[2,1-f][1,2,4]triazin-7-yl)-5-cyano-3,4-dihydroxytetrahydrofuran-2-yl)methyl ((R)-2-((3-chloro-5-cyanobenzyl)oxy)-3-(octadecyloxy)propyl) hydrogen phosphate]	7.60	7.60	6.03
CCCCCCCCCCCCCCCCCCOC[C@@H](COP(=O)(O)OC[C@H]1O[C@@](C#N)(c2ccc3c(N)ncnn23)[C@H](O)[C@@H]1O)Oc1ccccc1 [Example 38, ((2R,3S,4R,5R)-5-(4-aminopyrrolo[2,1-f][1,2,4]triazin-7-yl)-5-cyano-3,4-dihydroxytetrahydrofuran-2-yl)methyl ((S)-3-(octadecyloxy)-2-phenoxypropyl) hydrogen phosphate]	–	6.55	5.00
CCCCCCCCCCCCCCCCCCOC[C@H](COP(=O)(O)OC[C@H]1O[C@@](C#N)(c2ccc3c(N)ncnn23)[C@H](O)[C@@H]1O)OCc1cc(C#N)ccc1F [Example 66, ((2R,3S,4R,5R)-5-(4-aminopyrrolo[2,1-f][1,2,4]triazin-7-yl)-5-cyano-3,4-dihydroxytetrahydrofuran-2-yl)methyl ((R)-2-((5-cyano-2-fluorobenzyl)oxy)-3-(octadecyloxy)propyl) hydrogen phosphate]	8.00	8.00	6.32
CCCCCCCCCCCCCCCCCCOC[C@H](COP(=O)(O)OC[C@H]1O[C@@](C#N)(c2ccc3c(N)ncnn23)[C@H](O)[C@@H]1O)OCc1cc(C#N)cc(C#N)c1 [Example 26, ((2R,3S,4R,5R)-5-(4-aminopyrrolo[2,1-f][1,2,4]triazin-7-yl)-5-cyano-3,4-dihydroxytetrahydrofuran-2-yl)methyl ((R)-2-((3,5-dicyanobenzyl)oxy)-3-(octadecyloxy)propyl) hydrogen phosphate]	7.72	7.72	6.19
CCCCCCCCCCCCCCCCCCOC[C@H](COP(=O)(O)OC[C@H]1O[C@@](C#N)(c2ccc3c(N)ncnn23)[C@H](O)[C@@H]1O)OCc1ccccc1C#N [Example 50, ((2R,3S,4R,5R)-5-(4-aminopyrrolo[2,1-f][1,2,4]triazin-7-yl)-5-cyano-3,4-dihydroxytetrahydrofuran-2-yl)methyl ((R)-2-((2-cyanobenzyl)oxy)-3-(octadecyloxy)propyl) hydrogen phosphate]	7.05	7.05	6.07
CCCCCCCCCCCCCCCCCCOC[C@H](COP(=O)(O)OC[C@H]1O[C@@](C#N)(c2ccc3c(N)ncnn23)[C@H](O)[C@@H]1O)OCc1cccc(OC)c1 [Example 63, ((2R,3S,4R,5R)-5-(4-aminopyrrolo[2,1-f][1,2,4]triazin-7-yl)-5-cyano-3,4-dihydroxytetrahydrofuran-2-yl)methyl ((R)-2-((3-methoxybenzyl)oxy)-3-(octadecyloxy)propyl) hydrogen phosphate]	7.48	8.52	5.98
